# Data as given in paper PMC12549899 (Nature Communications, 2025).
# Test: Mixing of DMSO master stock into aqueous cryo-EM sample (precipitation)
# Assay type: physicochemical
# Details: 0.2 µL of 2.17 M DMSO stock into 40 µL DrOTOP1 sample, nominal ≤ 10.85 mM, 0.5% DMSO
# Protocol: All protein purification steps were performed at 4 °C, and buffers were chilled on ice until use unless otherwise noted. Cell pellets were thawed in a room-temperature water bath and resuspended in Solubilization Buffer (25 mM Tris pH 8.0, 150 mM NaCl, 1% n-dodecyl-β-d-maltoside (DDM), 0.15% cholesteryl hemisuccinate (CHS), […], 1 mM phenylmethylsulfonyl Fluoride (PMSF), 2 µM pepstatin A and 2 mM dithiothreitol (DTT)) and was stirred for 1 – 3 h for detergent solubilization. The lysate was centrifuged at 40,000 × g and the supernatant was collected. […]. Next, the mixture was flowed over a gravity chromatography column, and flowthrough containing GFP-cleaved DrOTOP1 was collected and concentrated in a 100 kDa cutoff centrifugal concentrator (Amicon® Ultra or Pierce™) that was pre-equilibrated with SEC1 Buffer, to 500 µL volume. […] The resulting peaks were analyzed with sodium dodecyl sulfate-polyacrylamide gel electrophoresis (SDS-PAGE), and fractions corresponding to dimeric DrOTOP1 were pooled. […] The resulting peaks were analyzed with SDS-PAGE, and fractions corresponding to dimeric DrOTOP1 in lipid nanodisc were pooled and concentrated to 2 – 5 mg/mL with a 100 kDa cutoff centrifugal concentrator (Amicon® Ultra or Pierce™). […]
compound,measurement,value
C=C(C)COc1ccccc1NC(=O)c1nc[nH]c1C [C2.2],Solubility in aqueous buffer,visible precipitation formed
